Source: US12410152B2, “Oxazole and thioazole-type cullin ring ubiquitin ligase compounds and uses thereof” (Proxygen GmbH, priority 2019, dated 2025)

What was measured:
[1] = molecular target: T1, CDK12:CCNK and DDB1:CUL4B (Homo sapiens, UniProt Q16531+Q9NYV4); assay: Biotin proximity labeling with miniTurbo in live cells; assay type: cell-based; conditions: HEK/293T cells with DDB1- or CDK12-mTurbo fusions, carfilzomib 10 μM
T1 construct: expressed in transfected cells; host or cells: 293T (HEK) cells, transient transfection
Protocol: The direct, drug-induced association of CDK12:CCNK and DDB1:CUL4B was further assessed in a cellular assay based on enzyme-catalyzed proximity labeling via the efficient biotin ligase miniTurbo (mTurbo) (Branon, T. C. et al. Efficient proximity labeling in living cells and organisms with TurboID. Nat Biotechnol 36, 880-887, doi:10.1038/nbt.4201 (2018)) was performed. This assay enables recording dynamic changes in molecular proximity of an mTurbo-tagged bait protein by streptavidin purification of covalently biotinylated, proximal proteins. For this purpose, c-terminally tagged DDB1, or CDK12 mTurbo-fusions were transiently expressed in HEK cells. Cells were treated for one hour with C020772.1 or vehicle (DMSO) control, including a 30 minute biotin labeling pulse (FIG. 20 g, h). […] Vice-versa, DDB1 was only identified as CDK12 interactor after drug treatment, but was not purified after vehicle-control treatment (FIG. 20 h). […]
One 10-cm culture plate of 293T cells (70%-80% confluent) was transfected with 2 μg of pLenti_DDB1_miniTurbo_V5 or pLenti_CDK12_miniTurbo_V5 using Lipofectamine 2000 (Invitrogen, 11668019). […] Eluates were analyzed by WB. Quantification was performed with ImageJ.

CDK12/13 = molecular target: T2, CDK12/13 (Homo sapiens, UniProt Q14004); assay: CDK12/13 destabilization (expression proteomics and Western blot); assay type: cell-based; conditions: expression proteomics, drug vs DMSO; Table 4, log2FC < −0.3
T2 construct: endogenous in cells; host or cells: KBM7 cells
Protocol: The hypomorphic phenotype of the mutated UBE2M allele in KBM7 cells (KBM7 UBE2M^mut cells) was assessed. In this regard, CRISPR/Cas9-induced mutation of UBE2M inactivated CRL activity including CRL4^CRBN and CRL2^VHL. […] Additionally, CCNK destabilization by all three compounds was validated via time-resolved immunoblots wherein CCNK degradation was evident after two hours (FIG. 19c).
PBS-washed cell pellets were lysed in 50 mM Tris pH 7.9, 8M Urea and 1% CHAPS and incubated with shaking at 4° C. for at least 30 min. 20 μg of supernatants were run and transferred for detection. Antibodies used: CUL1 (Santa Cruz Biotechnology, sc-1276), CUL2 (Sigma-Aldrich, SAB2501565-100), CUL3 (Cell Signaling Technology, 2759), CUL4A (Cell Signaling Technology, 2699S), CUL4B (Proteintech, 12916-1-AP), CUL5 (Santa Cruz Biotechnology, sc-373822), UBE2M (Santa Cruz Biotechnology, sc-390064), DDB1 (Cell Signaling Technology, 5428S), CCNK (Bethyl, A301-939A), CDK12 (Cell Signaling Technology, 11973S), CDK13 (Bethyl, A301-458A), RBM39 (1:500, Santa Cruz Biotechnology sc-376531), V5 (Cell Signaling Technology, 13202), Ubiquityl-Histone H2A (K119) (Cell Signaling, 8240-20). ACTIN (Sigma-Aldrich, A5441), VINCUL1N (Santa Cruz Biotechnology, sc-25336). Secondary antibodies anti-mouse/rabbit/goat (Jackson ImmunoResearch 115-035-003, 111-035-003 and 705-035-003).
Comparison of overall proteome-wide changes in KBM7 cells treated with IC020772.1 (2.5 μM), IC021313.2 (7 μM) or T6938051 (3.5 μM) for 5 h and 12h, using quantitative proteomics based on isobaric tagging.

T1 sequence (Q9NYV4 whole entry, the tested form may be a part): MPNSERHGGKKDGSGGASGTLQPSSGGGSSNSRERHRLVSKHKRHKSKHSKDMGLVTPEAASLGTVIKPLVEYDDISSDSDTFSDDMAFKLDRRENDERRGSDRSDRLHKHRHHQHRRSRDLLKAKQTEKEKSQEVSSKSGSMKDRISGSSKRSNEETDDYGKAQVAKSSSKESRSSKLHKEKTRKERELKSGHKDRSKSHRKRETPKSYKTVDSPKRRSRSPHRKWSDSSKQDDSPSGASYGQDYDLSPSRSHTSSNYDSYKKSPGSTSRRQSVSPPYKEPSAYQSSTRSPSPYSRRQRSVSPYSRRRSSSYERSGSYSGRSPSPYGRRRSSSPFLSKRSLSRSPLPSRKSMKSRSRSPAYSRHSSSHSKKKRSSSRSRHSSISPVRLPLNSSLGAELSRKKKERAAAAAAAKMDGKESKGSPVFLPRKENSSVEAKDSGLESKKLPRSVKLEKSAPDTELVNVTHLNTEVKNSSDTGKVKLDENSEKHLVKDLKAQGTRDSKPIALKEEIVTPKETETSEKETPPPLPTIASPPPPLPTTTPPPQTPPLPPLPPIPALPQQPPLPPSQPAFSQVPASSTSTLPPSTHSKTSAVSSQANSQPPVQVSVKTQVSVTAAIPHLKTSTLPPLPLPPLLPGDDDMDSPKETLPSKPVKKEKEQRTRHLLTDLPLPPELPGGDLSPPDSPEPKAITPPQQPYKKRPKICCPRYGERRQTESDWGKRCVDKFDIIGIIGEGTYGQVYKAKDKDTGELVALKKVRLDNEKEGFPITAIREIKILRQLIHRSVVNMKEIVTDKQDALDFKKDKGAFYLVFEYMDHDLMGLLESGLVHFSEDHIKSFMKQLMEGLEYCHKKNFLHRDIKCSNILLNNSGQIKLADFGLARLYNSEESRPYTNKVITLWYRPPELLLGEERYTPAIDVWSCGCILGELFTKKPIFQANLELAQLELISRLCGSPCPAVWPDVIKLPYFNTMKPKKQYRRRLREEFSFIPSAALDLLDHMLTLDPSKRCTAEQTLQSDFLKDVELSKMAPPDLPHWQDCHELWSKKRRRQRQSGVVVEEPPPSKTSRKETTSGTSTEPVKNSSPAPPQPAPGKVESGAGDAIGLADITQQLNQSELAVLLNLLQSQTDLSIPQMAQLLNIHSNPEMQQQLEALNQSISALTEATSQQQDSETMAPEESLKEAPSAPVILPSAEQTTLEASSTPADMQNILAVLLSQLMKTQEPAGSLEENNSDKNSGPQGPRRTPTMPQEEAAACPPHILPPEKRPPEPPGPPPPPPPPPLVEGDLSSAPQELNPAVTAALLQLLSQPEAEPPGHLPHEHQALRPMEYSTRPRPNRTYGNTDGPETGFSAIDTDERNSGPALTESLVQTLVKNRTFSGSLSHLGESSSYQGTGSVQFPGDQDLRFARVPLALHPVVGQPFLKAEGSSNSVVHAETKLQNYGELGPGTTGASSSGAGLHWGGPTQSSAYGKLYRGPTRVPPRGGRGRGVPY
T1 sequence (O75909 whole entry partner, the tested form may be a part): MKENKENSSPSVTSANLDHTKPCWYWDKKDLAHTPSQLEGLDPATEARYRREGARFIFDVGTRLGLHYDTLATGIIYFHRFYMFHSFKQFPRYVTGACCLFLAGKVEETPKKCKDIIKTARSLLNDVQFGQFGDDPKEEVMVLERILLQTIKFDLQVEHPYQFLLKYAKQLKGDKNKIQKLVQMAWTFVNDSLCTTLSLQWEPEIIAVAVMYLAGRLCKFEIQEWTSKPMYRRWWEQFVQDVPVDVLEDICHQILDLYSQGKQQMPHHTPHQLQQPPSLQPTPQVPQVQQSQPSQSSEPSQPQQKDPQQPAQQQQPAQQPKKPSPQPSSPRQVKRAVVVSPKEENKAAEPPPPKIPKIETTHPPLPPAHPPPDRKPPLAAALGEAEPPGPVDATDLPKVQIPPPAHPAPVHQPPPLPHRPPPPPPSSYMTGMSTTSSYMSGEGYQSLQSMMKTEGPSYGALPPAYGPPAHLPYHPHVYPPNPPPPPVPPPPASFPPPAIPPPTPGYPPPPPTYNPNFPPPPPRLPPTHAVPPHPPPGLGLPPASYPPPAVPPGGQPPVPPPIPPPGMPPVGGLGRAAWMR
T1 sequence (Q16531 whole entry, the tested form may be a part): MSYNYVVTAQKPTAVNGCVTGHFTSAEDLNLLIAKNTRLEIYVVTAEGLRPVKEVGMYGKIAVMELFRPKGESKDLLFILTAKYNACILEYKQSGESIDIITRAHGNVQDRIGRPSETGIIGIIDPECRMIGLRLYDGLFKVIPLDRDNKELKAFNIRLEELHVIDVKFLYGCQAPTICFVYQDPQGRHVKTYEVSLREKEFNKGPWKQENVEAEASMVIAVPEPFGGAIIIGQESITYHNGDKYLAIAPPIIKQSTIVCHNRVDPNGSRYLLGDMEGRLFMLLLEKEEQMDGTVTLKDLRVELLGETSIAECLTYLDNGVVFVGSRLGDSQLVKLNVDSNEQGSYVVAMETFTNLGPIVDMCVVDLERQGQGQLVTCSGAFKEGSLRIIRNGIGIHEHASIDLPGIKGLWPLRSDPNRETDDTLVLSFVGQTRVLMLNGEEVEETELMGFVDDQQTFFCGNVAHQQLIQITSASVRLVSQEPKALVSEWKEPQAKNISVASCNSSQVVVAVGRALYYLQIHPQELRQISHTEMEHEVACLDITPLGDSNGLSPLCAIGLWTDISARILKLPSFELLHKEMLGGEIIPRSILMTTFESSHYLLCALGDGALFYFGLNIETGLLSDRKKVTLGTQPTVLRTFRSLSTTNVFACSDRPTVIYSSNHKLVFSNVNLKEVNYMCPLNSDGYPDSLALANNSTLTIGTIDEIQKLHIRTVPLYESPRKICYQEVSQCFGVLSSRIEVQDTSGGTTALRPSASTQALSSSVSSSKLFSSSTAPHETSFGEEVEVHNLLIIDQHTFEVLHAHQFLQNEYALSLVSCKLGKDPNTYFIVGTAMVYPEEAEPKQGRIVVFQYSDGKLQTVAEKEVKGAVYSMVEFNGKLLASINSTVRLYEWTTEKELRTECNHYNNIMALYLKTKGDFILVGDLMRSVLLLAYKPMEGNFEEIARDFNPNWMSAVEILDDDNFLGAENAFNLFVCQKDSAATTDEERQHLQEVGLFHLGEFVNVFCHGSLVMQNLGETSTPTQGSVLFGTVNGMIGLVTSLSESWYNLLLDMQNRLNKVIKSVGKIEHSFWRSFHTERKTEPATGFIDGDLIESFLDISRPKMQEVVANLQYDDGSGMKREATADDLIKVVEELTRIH
T2 sequence (O75909 whole entry): as the sequence (O75909 whole entry partner, the tested form may be a part) above
T2 sequence (Q16531 whole entry, further chain): as the sequence (Q16531 whole entry, the tested form may be a part) above
T2 sequence (Q14004 other isoform, or with tags, fused parts or gaps): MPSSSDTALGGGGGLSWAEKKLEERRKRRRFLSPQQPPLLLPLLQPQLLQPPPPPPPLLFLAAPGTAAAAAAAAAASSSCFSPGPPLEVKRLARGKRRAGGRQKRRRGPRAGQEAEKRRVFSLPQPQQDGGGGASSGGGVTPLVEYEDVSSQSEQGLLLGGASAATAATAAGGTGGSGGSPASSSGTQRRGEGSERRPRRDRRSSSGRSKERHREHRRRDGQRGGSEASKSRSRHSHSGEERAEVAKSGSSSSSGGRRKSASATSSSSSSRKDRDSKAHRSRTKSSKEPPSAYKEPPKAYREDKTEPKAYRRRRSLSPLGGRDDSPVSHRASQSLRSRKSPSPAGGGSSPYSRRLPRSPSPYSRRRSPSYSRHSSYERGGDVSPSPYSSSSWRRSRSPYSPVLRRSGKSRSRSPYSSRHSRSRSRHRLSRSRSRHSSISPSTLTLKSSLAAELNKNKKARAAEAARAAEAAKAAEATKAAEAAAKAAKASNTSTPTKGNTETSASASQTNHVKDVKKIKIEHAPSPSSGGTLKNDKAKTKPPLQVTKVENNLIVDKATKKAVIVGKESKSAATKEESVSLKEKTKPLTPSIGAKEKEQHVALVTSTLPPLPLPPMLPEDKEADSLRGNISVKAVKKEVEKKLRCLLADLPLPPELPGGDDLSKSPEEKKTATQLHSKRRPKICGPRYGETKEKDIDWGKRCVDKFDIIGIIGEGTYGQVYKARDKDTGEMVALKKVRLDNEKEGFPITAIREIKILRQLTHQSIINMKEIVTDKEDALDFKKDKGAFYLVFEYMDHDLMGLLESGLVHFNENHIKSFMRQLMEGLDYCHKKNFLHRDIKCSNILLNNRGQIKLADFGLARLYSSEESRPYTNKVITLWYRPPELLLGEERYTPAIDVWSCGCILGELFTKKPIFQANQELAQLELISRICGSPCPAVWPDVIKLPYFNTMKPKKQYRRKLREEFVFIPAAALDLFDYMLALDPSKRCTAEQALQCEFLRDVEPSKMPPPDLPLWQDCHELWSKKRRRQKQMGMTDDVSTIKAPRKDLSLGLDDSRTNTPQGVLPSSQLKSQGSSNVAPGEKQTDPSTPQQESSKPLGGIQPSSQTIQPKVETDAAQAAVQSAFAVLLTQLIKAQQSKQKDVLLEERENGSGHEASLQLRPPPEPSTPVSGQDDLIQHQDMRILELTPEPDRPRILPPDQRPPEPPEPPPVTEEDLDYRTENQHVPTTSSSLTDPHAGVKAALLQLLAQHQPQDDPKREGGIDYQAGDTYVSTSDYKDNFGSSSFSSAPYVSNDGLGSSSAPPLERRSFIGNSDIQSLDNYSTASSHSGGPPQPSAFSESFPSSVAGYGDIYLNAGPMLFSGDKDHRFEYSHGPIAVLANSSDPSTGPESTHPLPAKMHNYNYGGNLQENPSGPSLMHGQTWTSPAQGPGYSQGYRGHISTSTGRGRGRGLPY

## O=C(CSc1nnc2c(n1)[nH]c1ccccc12)Nc1ccc(Cl)cn1 [IC020772.1]
[1]
  drug-induced CDK12-DDB1 proximity (biotin labeling): CDK12 interactions with DDB1 were exclusively identified in the presence of IC020772.1

## O=C(CSc1nc2ccccc2[nH]1)Nc1ccc(Cl)cn1 [IC021313.2]
CDK12/13
  logFC (IC021313.2/DMSO), CDK13 (Q14004-2): −0.6574
